Assay results: US20060252030A1, “Fabrication of carbohydrate chips by immobilizing unmodified carbohydrates on derivatized solid surfaces, and their uses” (priority 2005, published 2006)

What was measured:
[1] = test system: Triticum vulgaris (Cy3-TV, also known as wheat germ agglutinin); assay: Carbohydrate chip incubated with Cy3-TV, fluorescence scanner; assay type: binding; settings: carbohydrate on aminooxy or hydrazide chip, FIG. 5(a)
Method: (§1) A solution (0.1 μl˜1 nl) of carbohydrates including mono-, di-, oligo- and polysaccharides in PBS buffer (pH 4.0-5.0) containing 30-50% glycerol is printed on the above-mentioned chip base by using a micropipette or microarrayer. In this process, the concentration of carbohydrates is preferably between 0.1 mM and 50 mM. After completion of printing, the chip is reacted at 40-60° C. for 8 hours or more, and then washed. Then, the chip is immersed in PBS buffer (pH 7.4) containing 0.1% Tween 20 and 1% BSA (bovine serum albumin) for 1 hour. The fabrication of carbohydrate chips is complete by washing the BSA-treated chip with buffer (pH 7.4) containing 0.1% Tween 20 three times for 15 minutes.
(§2) The fabricated carbohydrate chips are applied for studies on protein-carbohydrate interactions. For these studies, the carbohydrate chips are incubated with non-labeled or fluorophore-labeled proteins in buffer containing 0.1% Tween 20 for 1 hour. Proteins labeled by fluorescent dyes such as Cy3, Cy5 and FITC are commercially available, or can be prepared by reacting proteins with fluorescent dyes. Then, the protein-treated chips are washed with buffer containing 0.1% Tween 20 three times for 10 minutes in order to remove unbound proteins.
(§3) Carbohydrate chips are used for the rapid assessment of carbohydrate-protein interactions, which are involve in various biological processes and are of importance for the development of novel therapeutics, and for the fast diagnosis of carbohydrate-based diseases such as tumors and pathogens. For this purpose, each solution (sodium phosphate buffer containing 30% glycerol, pH 5.0) of twenty one of mono-, di-, oligo- and polysaccharides listed in Table 1 was printed on the solid support coated by aminooxy or hydrazide groups. The carbohydrate chips prepared from the method described in Example 3 were incubated with Cy3-TV, Cy5-AA and FITC-ConA. According to the fluorescence intensity of the spots in chips after detecting with a fluorescence scanner, TV strongly is bound to N,N′-diacetylchitobiose (13), less strongly to GlcNAc (2) and sialyl Le^x (19), and weakly bound to GalNAc (5), LacNAc (15) and NeuNAcLacNAc (18) [see FIG. 5(a)].

[2] = molecular target: T1, Aleuria aurantia (Cy5-AA) lectin (Aleuria aurantia, UniProt P18891); assay: Carbohydrate chip incubated with Cy5-AA, fluorescence scanner; assay type: binding; settings: carbohydrate on aminooxy or hydrazide chip, FIG. 5(b)
T1 sequence (P18891 1-313): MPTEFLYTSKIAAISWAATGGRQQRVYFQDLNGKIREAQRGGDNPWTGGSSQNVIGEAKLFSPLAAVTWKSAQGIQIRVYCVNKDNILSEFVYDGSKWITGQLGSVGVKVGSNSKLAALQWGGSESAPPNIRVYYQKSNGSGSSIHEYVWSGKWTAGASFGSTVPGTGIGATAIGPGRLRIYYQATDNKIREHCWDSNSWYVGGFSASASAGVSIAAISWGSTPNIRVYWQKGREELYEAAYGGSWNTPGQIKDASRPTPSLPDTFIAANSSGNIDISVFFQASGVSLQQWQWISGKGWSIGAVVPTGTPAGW
Method: as §1, §2, §3

[3] = test system: E. coli ORN178, expressing mannose-binding adhesin on pili; assay: Carbohydrate chip probed with E. coli pre-incubated with propidium iodide; settings: FIG. 5(e)
Method: FIG. 5 is a fluorescent image of carbohydrate chips composed of 21 carbohydrates probed with (a) Cy3-TV, (b) Cy5-AA, (c) FITC-ConA, (d) anti-Sialyl Le^x antibody and (e) E. Coli pre-incubated with propidium iodide (PI).
Many bacteria including pathogens express specific carbohydrate-binding proteins on pili. The initial attachment of pathogens to host cells through specific carbohydrate-protein interactions confers pathogenic properties. For example, a mannose-binding protein of type 1 fimbriated E. coli is known to cause common urinary tract infection through its binding to glycans on host cells (Connell, H. et al., Proc. Natl. Acad. Sci. USA 1996, 93, 9827). Thus, carbohydrate chips were also used to detect pathogens for diagnosis. E. coli ORN178, expressing mannose-binding adhesin on pili, binds to spots containing mannose, mannobiose and mannan [see FIG. 5(e)].

[4] = molecular target: ConA (Canavalia ensiformis, UniProt P02866); assay: Carbohydrate chip incubated with FITC-ConA, fluorescence scanner; assay type: binding; settings: carbohydrate on aminooxy or hydrazide chip, FIG. 5(c)
Method: as §1, §2
as §3, with “The carbohydrate chips prepared from the method described in Example 3 were incubated with Cy3-TV, Cy5-AA and FITC-ConA.” left out

[5] = test system: anti-sialyl Le^x antibody; assay: Carbohydrate chip incubated with anti-sialyl Le^x antibody, fluorescence image; assay type: binding; settings: FIG. 5(d)
Method: as §1, §2
Sialyl Le^x is an important biological recognition marker and an interesting target for drug discovery. […]

| binding of TV to immobilized carbohydrate (fluorescence intensity of the spots) [1] | Compound | binding of AA to immobilized carbohydrate (fluorescence intensity of the spots) [2] | other results |
| --- | --- | --- | --- |
| weakly bound | CC(=O)N[C@H]1C(O)O[C@H](CO)[C@H](O)[C@@H]1O (stereo partly shown) [compound 5, N-acetylgalactosamine] | – | – |
| less strongly | CC(=O)N[C@H]1C(O)O[C@H](CO)[C@@H](O)[C@@H]1O (stereo partly shown) [compound 2, N-acetylglucosamine] | – | – |
| weakly bound | Galβ1,4GlcNac [compound 15] | – | – |
| weakly bound | CC(=O)N[C@H]1[C@H]([C@H](O)[C@H](O)CO)O[C@@](O[C@H]2[C@@H](O)[C@@H](CO)O[C@@H](O[C@H]3[C@H](O)[C@@H](NC(C)=O)C(O)O[C@@H]3CO)[C@@H]2O)(C(=O)O)C[C@@H]1O (stereo partly shown) [compound 18, NeuNAcα2,3Galβ1,4GlcNAc] | – | – |
| – | C[C@H](O)[C@@H](O)[C@@H](O)[C@H](O)C=O [compound 8, fucose] | strongly bound | – |
| – | C[C@@H]1O[C@@H](O[C@H]2[C@H](O[C@@H]3O[C@H](CO)[C@H](O)[C@H](O)[C@H]3O)[C@@H](CO)OC(O)[C@@H]2O)[C@@H](O)[C@H](O)[C@@H]1O (stereo partly shown) [compound 17, Fucα1,3(Galβ1,4)Glc] | strongly bound | – |
| – | Manα1,6Man [compound 16] | – | binding of E. coli ORN178 to carbohydrate spots [3]: binds; binding of ConA to immobilized carbohydrate (fluorescence intensity of the spots) [4]: less strong binding |
| – | OC[C@H]1O[C@H](O[C@H]2[C@H](O)[C@@H](O)C(O)O[C@@H]2CO)[C@H](O)[C@@H](O)[C@@H]1O (mixture of isomers) [compound 11, Maltose] | – | binding of ConA to immobilized carbohydrate (fluorescence intensity of the spots) [4]: very weak binding |
| – | CC(=O)N[C@H]1[C@H](O[C@H]2[C@@H](O)[C@@H](CO)O[C@@H](O[C@H]3[C@H](O)[C@@H](O)C(O)O[C@@H]3CO)[C@@H]2O)O[C@H](CO)[C@@H](O[C@@H]2O[C@@H](C)[C@@H](O)[C@@H](O)[C@@H]2O)[C@@H]1O[C@@H]1O[C@H](CO)[C@H](O)[C@H](O)[C@H]1O[C@@H]1O[C@@H](C)[C@@H](O)[C@@H](O)[C@@H]1O (stereo partly shown) [compound 20, Fucα1,2Galβ1,3(Fucα1,4)GlcNAcβ1,3Galβ1,4Glc] | strongly bound | – |
| – | Mannan [compound 21] | – | binding of E. coli ORN178 to carbohydrate spots [3]: binds; binding of ConA to immobilized carbohydrate (fluorescence intensity of the spots) [4]: strong binding |
| strongly | CC(=O)N[C@H]1[C@H](O[C@H]2[C@H](O)[C@@H](NC(C)=O)C(O)O[C@@H]2CO)O[C@H](CO)[C@@H](O)[C@@H]1O (stereo partly shown) [compound 13, N,N′-diacetylchitobiose] | – | – |

| Compound | binding of TV to immobilized carbohydrate (fluorescence intensity of the spots) [1] | binding of AA to immobilized carbohydrate (fluorescence intensity of the spots) [2] | other results |
| --- | --- | --- | --- |
| CC(=O)N[C@H]1[C@H]([C@H](O)[C@H](O)CO)O[C@@](O[C@H]2[C@@H](O)[C@@H](CO)O[C@@H](O[C@H]3[C@H](O[C@@H]4O[C@@H](C)[C@@H](O)[C@@H](O)[C@@H]4O)[C@@H](NC(C)=O)C(O)O[C@@H]3CO)[C@@H]2O)(C(=O)O)C[C@@H]1O (stereo partly shown) [compound 19, Sialyl Le^x] | less strongly | very weakly bound | recognition by anti-sialyl Le^x antibody (fluorescence image of the chip) [5]: selectively recognized |
